In US8765819B2, “Composition comprising benzoic acid in combination with organic acid preservatives as active ingredients and the use thereof” (priority 2009, dated 2014):

Key:
Candidal vaginitis = test: Therapeutic effect of gel compositions on Candidal vaginitis (clinical cases); type: in vivo, patients; settings: cases/cases of group
From the text: 1. Experimental Object: observing the therapeutic effect of the compositions comprising the combination of sodium benzoate with sodium propionate or sorbic acid. Unless otherwise illustrated, the solutions in the experiments are all aqueous solutions.
• Group I: 0.125% (w/v) sodium propionate; • Group II: i.e., the composition of Example 9 comprising 0.1% (w/v) sodium benzoate+0.125% (w/v) sodium propionate; • Group III: 0.0125% (w/v) sorbic acid; • Group IV: i.e., the composition of Example 7 comprising 0.1% (w/v) sodium benzoate+0.0125% (w/v) sorbic acid; • Group V: 0.1% (w/v) sodium benzoate; • Group VI: i.e., the composition of Example 5 comprising 0.1% sodium benzoate+0.0125% sodium dehydroacetate. 3. Experimental cases: cases of Candidal vaginitis, 20 cases per group, enrolling according to following criteria: recurrent symptoms such as vulvovaginal pruritus and vulvovaginal burning pain, and increased leucorrhea, optionally with white bean curd slag-like clots, pH value of vaginal secretion <4.5, vaginal bacteria were dominated by large Gram-positive rods, and Candida spores and/or hypha were found. 4. […] 5. […] 6. Observed results: observing the changes in vulvovaginal pruritus, vulvovaginal burning pain and leucorrhea nature, the pH value of vaginal secretion, observing the Nugent scores of the vaginal flora, whether Candida grew or not. 7. […] 8.

[1] = system: Candida strains (clinical isolates from patients suffering from Candidal vaginitis); test: Inhibition of Candida growth in broth pH 4.5 (turbidity after 72 hours); type: cell-based
From the text: 1. […] Unless otherwise illustrated, the solutions in the experiments are all aqueous solutions. 2. Experimental Method: (1) Experimental Materials:
a) Experimental strains: 11 Candida strains, all of which were screened from the clinical isolates from patients suffering from Candidal vaginitis, and were capable of growing in broth comprising 0.025% (w/v) sodium benzoate.
b) Broth: 1% yeast extract powder, 9% sucrose, 0.025% Manganese sulfate (MnSO4.4H2O), 0.058% Magnesium sulphate (MgSO4.7H2O), and 0.9% lactic acid, wherein the pH value was adjusted to 4.5 and the broth was sterilized for use;
(2) Experimental Grouping:
The requirements for aseptic technique were strictly followed to prepare the following groups of sterile test tubes: • a) sodium benzoate group: a test tube containing 5 ml broth, to which 0.025% (w/v) sodium benzoate was added; • b) sodium benzoate+sodium dehydroacetate group: 6 test tubes each containing 5 ml broth, wherein 0.0025% (w/v), 0.005% (w/v), and 0.01% (w/v) sodium dehydroacetate were added to three tubes, respectively; 0.025% (w/v) sodium benzoate was added to each of the rest 3 tubes, and then 0.0025% (w/v), 0.005% (w/v), 0.01% (w/v) sodium dehydroacetate were added to them, respectively; • c) sodium benzoate+sodium propionate group: 6 test tubes each containing 5 ml broth, wherein 0.0625% (w/v), 0.125% (w/v), and 0.25% (w/v) sodium propionate were added to three tubes, respectively; 0.025% (w/v) sodium benzoate was added to each of the rest 3 tubes, and then 0.0625% (w/v), 0.125% (w/v), and 0.25% (w/v) sodium propionate were added to them, respectively; • d) sodium benzoate+potassium sorbate group: 6 test tubes each containing 5 ml broth, wherein 0.00625% (w/v), 0.0125% (w/v), and 0.025% (w/v) potassium sorbate were added to 3 tubes, respectively; 0.025% (w/v) sodium benzoate was added to each of the rest 3 tubes, and then 0.00625% (w/v), 0.0125% (w/v), and 0.025% (w/v) potassium sorbate were added to them, respectively; • e) sodium benzoate+Ethylparaben: 6 test tubes each containing 5 ml broth, wherein 0.0125% (w/v), 0.025% (w/v), and 0.05% (w/v) Ethylparaben were added to 3 tubes, respectively; 0.025% (w/v) sodium benzoate was added to each of the rest 3 tubes, and then 0.0125% (w/v), 0.025% (w/v), and 0.05% (w/v) Ethylparaben were added to them, respectively; • f) Positive control: a broth-containing test tube with Candida but without sodium benzoate, sodium dehydroacetate, sodium propionate, sorbic acid, or Ethylparaben. • g) Negative control: a broth-containing test tube without Candida, sodium benzoate, sodium dehydroacetate, sodium propionate, sorbic acid, or Ethylparaben; (3) Experimental Methods:
The Candidal suspensions were prepared under stringent aseptic manipulation techniques. The colonies of various Candidal strains were diluted with saline, respectively. The turbidity was adjusted with a turbiditor to 0.5M (about 10^8CFU/ml), and then 1 ml 0.5M bacterial solution was added to 9 ml broth and was 10 times diluted, so that each Candidal suspension comprised Candidal organisms at 10^7CFU/ml.
Under stringent aseptic manipulation techniques, 100 μl bacterial solution thus prepared was added to each of the aforesaid a˜f test tubes and the positive control tube, and no bacterial solution was added to the negative control tube g.
These tubes were incubated in a biochemical incubator at 37.5° C. for 72 hours. The turbidity of the test tubes were observed and recorded.

**Q.** What does the source list for `CCC(=O)[O-].[Na+]` [0.125% sodium propionate, sodium propionate]?
**A.** Candida (detection rate) (Candidal vaginitis; Day 1): 16/20; pH 3.8~4.1 (vaginal secretion) (Candidal vaginitis; Day 1): 12/20; pH 4.2~4.5 (vaginal secretion) (Candidal vaginitis; Day 1): 5/20; pH <3.8 (vaginal secretion) (Candidal vaginitis; Day 1): 3/20; symptom alleviated/eliminated (Candidal vaginitis; Day 1): 7/20; Candida (detection rate) (Candidal vaginitis; Day 2): 13/20; pH 3.8~4.1 (vaginal secretion) (Candidal vaginitis; Day 2): 11/20; pH 4.2~4.5 (vaginal secretion) (Candidal vaginitis; Day 2): 6/20; pH <3.8 (vaginal secretion) (Candidal vaginitis; Day 2): 3/20; symptom alleviated/eliminated (Candidal vaginitis; Day 2): 9/20; Candida (detection rate) (Candidal vaginitis; Day 3): 10/20; pH 3.8~4.1 (vaginal secretion) (Candidal vaginitis; Day 3): 9/20; pH 4.2~4.5 (vaginal secretion) (Candidal vaginitis; Day 3): 9/20; pH <3.8 (vaginal secretion) (Candidal vaginitis; Day 3): 2/20; symptom alleviated/eliminated (Candidal vaginitis; Day 3): 14/20; Candida (detection rate) (Candidal vaginitis; Day 4): 12/20; pH 3.8~4.1 (vaginal secretion) (Candidal vaginitis; Day 4): 10/20; pH 4.2~4.5 (vaginal secretion) (Candidal vaginitis; Day 4): 9/20; pH <3.8 (vaginal secretion) (Candidal vaginitis; Day 4): 1/20; symptom alleviated/eliminated (Candidal vaginitis; Day 4): 13/20; Candida (detection rate) (Candidal vaginitis; Day 5): 11/20; pH 3.8~4.1 (vaginal secretion) (Candidal vaginitis; Day 5): 10/20; pH 4.2~4.5 (vaginal secretion) (Candidal vaginitis; Day 5): 8/20; pH <3.8 (vaginal secretion) (Candidal vaginitis; Day 5): 2/20; symptom alleviated/eliminated (Candidal vaginitis; Day 5): 13/20; Candida (detection rate) (Candidal vaginitis; before administration): 20/20; pH 3.8~4.1 (vaginal secretion) (Candidal vaginitis; before administration): 9/20; pH 4.2~4.5 (vaginal secretion) (Candidal vaginitis; before administration): 5/20; pH <3.8 (vaginal secretion) (Candidal vaginitis; before administration): 6/20; symptom alleviated/eliminated (Candidal vaginitis; before administration): 0/20; Candida growth, Strain 1 ([1]; Strain 1, 37.5° C.): +; Candida growth, Strain 2 ([1]; Strain 2, 37.5° C.): +; Candida growth, Strain 3 ([1]; Strain 3, 37.5° C.): +; Candida growth, Strain 4 ([1]; Strain 4, 37.5° C.): +; Candida growth, Strain 5 ([1]; Strain 5, 37.5° C.): −; Candida growth, Strain 6 ([1]; Strain 6, 37.5° C.): +; Candida growth, Strain 7 ([1]; Strain 7, 37.5° C.): +; Candida growth, Strain 8 ([1]; Strain 8, 37.5° C.): +; Candida growth, Strain 9 ([1]; Strain 9, 37.5° C.): −; Candida growth, Strain 10 ([1]; Strain 10, 37.5° C.): +; Candida growth, Strain 11 ([1]; Strain 11, 37.5° C.): −

**Q.** What does the source list for `C/C=C/C=C/C(=O)O` [0.0125% sorbic acid, sorbic acid]?
**A.** Candida (detection rate) (Candidal vaginitis; Day 1): 15/20; pH 3.8~4.1 (vaginal secretion) (Candidal vaginitis; Day 1): 13/20; pH 4.2~4.5 (vaginal secretion) (Candidal vaginitis; Day 1): 6/20; pH <3.8 (vaginal secretion) (Candidal vaginitis; Day 1): 1/20; symptom alleviated/eliminated (Candidal vaginitis; Day 1): 6/20; Candida (detection rate) (Candidal vaginitis; Day 2): 15/20; pH 3.8~4.1 (vaginal secretion) (Candidal vaginitis; Day 2): 11/20; pH 4.2~4.5 (vaginal secretion) (Candidal vaginitis; Day 2): 7/20; pH <3.8 (vaginal secretion) (Candidal vaginitis; Day 2): 2/20; symptom alleviated/eliminated (Candidal vaginitis; Day 2): 12/20; Candida (detection rate) (Candidal vaginitis; Day 3): 13/20; pH 3.8~4.1 (vaginal secretion) (Candidal vaginitis; Day 3): 10/20; pH 4.2~4.5 (vaginal secretion) (Candidal vaginitis; Day 3): 8/20; pH <3.8 (vaginal secretion) (Candidal vaginitis; Day 3): 2/20; symptom alleviated/eliminated (Candidal vaginitis; Day 3): 11/20; Candida (detection rate) (Candidal vaginitis; Day 4): 14/20; pH 3.8~4.1 (vaginal secretion) (Candidal vaginitis; Day 4): 11/20; pH 4.2~4.5 (vaginal secretion) (Candidal vaginitis; Day 4): 8/20; pH <3.8 (vaginal secretion) (Candidal vaginitis; Day 4): 1/20; symptom alleviated/eliminated (Candidal vaginitis; Day 4): 13/20; Candida (detection rate) (Candidal vaginitis; Day 5): 13/20; pH 3.8~4.1 (vaginal secretion) (Candidal vaginitis; Day 5): 11/20; pH 4.2~4.5 (vaginal secretion) (Candidal vaginitis; Day 5): 7/20; pH <3.8 (vaginal secretion) (Candidal vaginitis; Day 5): 2/20; symptom alleviated/eliminated (Candidal vaginitis; Day 5): 12/20; Candida (detection rate) (Candidal vaginitis; before administration): 20/20; pH 3.8~4.1 (vaginal secretion) (Candidal vaginitis; before administration): 9/20; pH 4.2~4.5 (vaginal secretion) (Candidal vaginitis; before administration): 6/20; pH <3.8 (vaginal secretion) (Candidal vaginitis; before administration): 5/20; symptom alleviated/eliminated (Candidal vaginitis; before administration): 0/20

**Q.** How did the “Candida (detection rate)” value (Candidal vaginitis; Day 1) turn out when `O=C([O-])c1ccccc1.[Na+]` [0.1% sodium benzoate, sodium benzoate] was run?
**A.** 15/20

**Q.** What about the “pH 3.8~4.1 (vaginal secretion)” value (Candidal vaginitis; Day 1) of the same compound?
**A.** 12/20

**Q.** What about the “pH 4.2~4.5 (vaginal secretion)” value (Candidal vaginitis; Day 1) of the same compound?
**A.** 6/20

**Q.** And the “pH <3.8 (vaginal secretion)” value (Candidal vaginitis; Day 1)?
**A.** 2/20

**Q.** What about the symptom alleviated/eliminated (Candidal vaginitis; Day 1) of the same compound?
**A.** 7/20

**Q.** What about the “Candida (detection rate)” value (Candidal vaginitis; Day 2) of the same compound?
**A.** 13/20

**Q.** What about the “pH 3.8~4.1 (vaginal secretion)” value (Candidal vaginitis; Day 2) of the same compound?
**A.** 10/20

**Q.** And the “pH 4.2~4.5 (vaginal secretion)” value (Candidal vaginitis; Day 2)?
**A.** 9/20

**Q.** What about the “pH <3.8 (vaginal secretion)” value (Candidal vaginitis; Day 2) of the same compound?
**A.** 1/20

**Q.** And the symptom alleviated/eliminated (Candidal vaginitis; Day 2)?
**A.** 9/20

**Q.** What about the “Candida (detection rate)” value (Candidal vaginitis; Day 3) of the same compound?
**A.** 9/20

**Q.** And the “pH 3.8~4.1 (vaginal secretion)” value (Candidal vaginitis; Day 3)?
**A.** 9/20

**Q.** What about the “pH 4.2~4.5 (vaginal secretion)” value (Candidal vaginitis; Day 3) of the same compound?
**A.** 9/20

**Q.** What about the “pH <3.8 (vaginal secretion)” value (Candidal vaginitis; Day 3) of the same compound?
**A.** 2/20

**Q.** And the symptom alleviated/eliminated (Candidal vaginitis; Day 3)?
**A.** 14/20

**Q.** What about the “Candida (detection rate)” value (Candidal vaginitis; Day 4) of the same compound?
**A.** 5/20

**Q.** And the “pH 3.8~4.1 (vaginal secretion)” value (Candidal vaginitis; Day 4)?
**A.** 10/20

**Q.** What about the “pH 4.2~4.5 (vaginal secretion)” value (Candidal vaginitis; Day 4) of the same compound?
**A.** 9/20

**Q.** And the “pH <3.8 (vaginal secretion)” value (Candidal vaginitis; Day 4)?
**A.** 1/20

**Q.** And the symptom alleviated/eliminated (Candidal vaginitis; Day 4)?
**A.** 15/20

**Q.** And the “Candida (detection rate)” value (Candidal vaginitis; Day 5)?
**A.** 6/20

**Q.** What about the “pH 3.8~4.1 (vaginal secretion)” value (Candidal vaginitis; Day 5) of the same compound?
**A.** 9/20

**Q.** And the “pH 4.2~4.5 (vaginal secretion)” value (Candidal vaginitis; Day 5)?
**A.** 10/20

**Q.** And the “pH <3.8 (vaginal secretion)” value (Candidal vaginitis; Day 5)?
**A.** 1/20

**Q.** And the symptom alleviated/eliminated (Candidal vaginitis; Day 5)?
**A.** 15/20

**Q.** And the “Candida (detection rate)” value (Candidal vaginitis; before administration)?
**A.** 20/20

**Q.** And the “pH 3.8~4.1 (vaginal secretion)” value (Candidal vaginitis; before administration)?
**A.** 10/20

**Q.** And the “pH 4.2~4.5 (vaginal secretion)” value (Candidal vaginitis; before administration)?
**A.** 4/20

**Q.** What about the “pH <3.8 (vaginal secretion)” value (Candidal vaginitis; before administration) of the same compound?
**A.** 6/20

**Q.** What about the symptom alleviated/eliminated (Candidal vaginitis; before administration) of the same compound?
**A.** 0/20
